Read-outs that look alike come from different tables or passages of the source.
Legend:
[1] = protein binding in human plasma by equilibrium dialysis; format: in vitro ADME; details: human plasma, 5 µM, 37 °C; for recovery at 6 h, 5 µM / remaining at 6 h, 5 µM / fraction unbound at 6 h, 5 µM: human; for remaining at 6 h, 5 µM / fraction unbound at 6 h, 5 µM: plasma
Experimental: Metabolic stability was assessed in mouse and rat liver microsomes. […] A plasma protein binding assay was performed to assess the extent of compound binding to plasma proteins. This is key as only unbound compound is free to distribute and exert a pharmacological effect. […] To assess the potential for this sub-class of SSAs to be developed as drugs for oral administration, Caco-2 permeability assays were also performed, as a cellular model indicative of human intestinal permeability. […] The […] MS/MS analysis. Samples were analysed using a Shimadzu liquid chromatography system coupled to a Triple Quad 6500+ mass spectrometry (AB Inc.) Separation of compounds was achieved using an HSS T3 column (50 x 2.1 mm) at a temperature of 40 °C and a binary mobile phase gradient at a flow rate of 0.7 mL/min. […] This was ramped to 95 % solvent B at 0.7 minutes, held for 0.5 minutes and then […] returned to initial conditions. Sample analysis was by electrospray ionisation. Protein Binding Measurements in Human Plasma by Using Equilibrium Dialysis Method : The fraction unbound in human plasma (P -KB, Ltd People's hospital of Shandong) were measured using 96-well Equilibrium Dialysis Plate (HTDialysis LLC, Gales Ferry, CT). Human plasma containing 5 μM test compound were dialysed against dialysis buffer (PBS) with initial samples taken to allow for assessment of plasma stability and recovery before the plate was incubated for 6 hours at 37 °C at 5 % CO2. Samples were removed at 6 hours, and all samples […] appropriate analytical internal standard. Samples were centrifuged at 3,220 g for 30 minutes (Eppendorf 5810R) to precipitate protein and enable sampling of supernatant prior to appropriate dilution for liquid chromatography mass -spectrometry (LC-MS/MS) analysis. Samples were analysed using a Shimadzu coupled to a triple Quad 6500 + (AB Inc., Illinois). Separation of analytes was achieved using a Xselect Hss T3 (2.1 x 50 mm) column at a temperature of 40 °C and a binary mobile phase gra dient at a flow rate of 0.8 mL/min. Initial […] formic acid in acetonitrile); this was ramped to 98 % B at 0.5 min, held for 0.4 min and then immediately returned to initial conditions. Sample analysis was by electrospray ionisation in positive ion mode. Bi-directional Permeability in Caco-2 Cell Line: The bi-directional permeability in Caco-2 cell lines was determined by seeding cells onto an HTS Transwell plate. Cells were cultivated for 14-18 days in a cell culture incubator at 37 °C, 5 % CO2, 95 % relative humidity. Cell culture medium was replaced every other day. To assess monolayer integrity the transepithelial electrical resistance (TEER) across the monolayer was measured using Millicell Epithelial volt-ohm meter prior to assay and Lucifer yellow (LY) fluorescence measurement post-assay. Test and control compounds were prepared in DMSO and diluted in Hank's Balanced Saline […] Compound was added to the donor compartment of the transwell plate for both apical to basolateral (A>B) and basolateral to apical (B>A) measurements, with blank HBSS being added to the receiver compartment. The transwell plate was then incubated at 37 °C, 5 % CO2 for 2 hours. 5

[2] = bi-directional permeability in Caco-2 cell line; format: in vitro ADME, human; details: human; for efflux ratio at 2 h / recovery at 2 h: Caco-2, pH 7.4, Caco-2; for Papp A→B at 2 h / Papp B→A at 2 h: Caco-2, pH 7.4, Caco-2, 5 or 10 µM, HBSS pH 7.4, 2 hours
Experimental: Metabolic stability was assessed in mouse and rat liver microsomes. Microsomes are subcellular fractions of hepatocytes and contain CYP450s, the predominant enzymes involved in first-pass metabolism.[66] […] A plasma protein binding assay was performed to assess the extent of compound binding to plasma proteins. This is key as only unbound compound is free to distribute and exert a pharmacological effect. […] To assess the potential for this sub-class of SSAs to be developed as drugs for oral administration, Caco-2 permeability assays were also performed, as a cellular model indicative of human intestinal permeability. […]
Sample analysis was by electrospray ionisation. […]
Bi-directional Permeability in Caco-2 Cell Line:
The bi-directional permeability in Caco-2 cell lines was determined by seeding cells onto an HTS Transwell plate. Cells were cultivated for 14-18 days in a cell culture incubator at 37 °C, 5 % CO2, 95 % relative humidity. Cell culture medium was replaced every other day. To assess monolayer integrity the transepithelial electrical resistance (TEER) across the monolayer was measured using Millicell Epithelial volt-ohm meter prior to assay and Lucifer yellow (LY) fluorescence measurement post-assay.
Test and control compounds were prepared in DMSO and diluted in Hank’s Balanced Saline […]
Solution (HBSS, pH 7.4) to a final concentration of 5 or 10 µM. Compound was added to the […]
donor compartment of the transwell plate for both apical to basolateral (A>B) and basolateral […]
to apical (B>A) measurements, with blank HBSS being added to the receiver compartment.
The transwell plate was then incubated at 37 °C, 5 % CO2 for 2 hours.

[3] = 6 hours, read-out: % Bound (converted)

Row | Compound | recovery at 6 h, 5 µM ([1]; 6 hours) [%] | remaining at 6 h, 5 µM [1] [%] | fraction unbound at 6 h, 5 µM [1, 3] | fraction unbound at 6 h, 5 µM ([1]; 6 hours, read-out: % Unbound) | efflux ratio at 2 h [2] | Papp A→B at 2 h [2] [×10⁻⁶ cm/s] | Papp B→A at 2 h [2] [×10⁻⁶ cm/s] | recovery at 2 h ([2]; read-out: Recovery (%) AP-BL) [%] | recovery at 2 h ([2]; read-out: Recovery (%) BL-AP) [%] | % Remaining at 6 hr [1] [%] | % Bound ([1]; 6 hours) [%] | % Recovery ([1]; 6 hours) [%] | % Unbound ([1]; 6 hours) [%]
1 | O=C(O)CC[C@H](NC(=O)Nc1ccc(C(F)(F)F)cc1)C(=O)O [SSA 1] | 97.3 | 104 | 0.217 | 0.217 | 1.23 | 0.19 | 0.23 | 107 | 89.7 |  |  |  | 
2 | O=C(O)CC[C@H](NC(=O)Nc1ccc(C(F)(F)F)cc1)C(=O)O [SSA 2] |  |  |  |  |  |  |  |  |  | 108.64 | 78.73 | 97.50 | 21.27
3 | O=C(O)CC[C@@H](NC(=O)Nc1ccc(C(F)(F)F)cc1)C(=O)O [SSA 3] | 99.6 | 102 | 0.23 | 0.23 | 2.31 | 0.1 | 0.24 | 103 | 87.4 |  |  |  | 
4 | O=C(O)CC[C@H](NC(=O)Nc1ccc(Br)cc1)C(=O)O [SSA 9] | 94.9 | 106 | 0.166 | 0.166 | 1.93 | 0.17 | 0.32 | 115 | 106 |  |  |  | 

From publication PMC12645191, “Dicarboxylate and dicarboxylic acid appended supramolecular self-associating amphiphiles as antimicrobial agents against high priority bacterial pathogens” (Organic & Biomolecular Chemistry, 2025)
